Data reported in ChEMBL document CHEMBL1201862, “PubChem BioAssay data set” (2004).
Activity calls are given as the source filed them.

Columns and labels:
[1] = Luminescence Cell-Based Dose Response HTS to Identify Inhibitors of 5'UTR Stem-Loop Driven Prion Protein mRNA Translation in H4 Neuroglioblastoma Cells. [Related pubchem assays: 1827 (Project Summary), 1813 (Primary HTS)]; type: functional
Insulin-degrading enzyme [2] = target: T1, Insulin-degrading enzyme (Homo sapiens, UniProt P14735); test: activators of endogenous IDE in HEK cells, dose response, cell-based, fluorescence polarization (AID 588439); type: functional
T1 sequence (P14735 whole entry): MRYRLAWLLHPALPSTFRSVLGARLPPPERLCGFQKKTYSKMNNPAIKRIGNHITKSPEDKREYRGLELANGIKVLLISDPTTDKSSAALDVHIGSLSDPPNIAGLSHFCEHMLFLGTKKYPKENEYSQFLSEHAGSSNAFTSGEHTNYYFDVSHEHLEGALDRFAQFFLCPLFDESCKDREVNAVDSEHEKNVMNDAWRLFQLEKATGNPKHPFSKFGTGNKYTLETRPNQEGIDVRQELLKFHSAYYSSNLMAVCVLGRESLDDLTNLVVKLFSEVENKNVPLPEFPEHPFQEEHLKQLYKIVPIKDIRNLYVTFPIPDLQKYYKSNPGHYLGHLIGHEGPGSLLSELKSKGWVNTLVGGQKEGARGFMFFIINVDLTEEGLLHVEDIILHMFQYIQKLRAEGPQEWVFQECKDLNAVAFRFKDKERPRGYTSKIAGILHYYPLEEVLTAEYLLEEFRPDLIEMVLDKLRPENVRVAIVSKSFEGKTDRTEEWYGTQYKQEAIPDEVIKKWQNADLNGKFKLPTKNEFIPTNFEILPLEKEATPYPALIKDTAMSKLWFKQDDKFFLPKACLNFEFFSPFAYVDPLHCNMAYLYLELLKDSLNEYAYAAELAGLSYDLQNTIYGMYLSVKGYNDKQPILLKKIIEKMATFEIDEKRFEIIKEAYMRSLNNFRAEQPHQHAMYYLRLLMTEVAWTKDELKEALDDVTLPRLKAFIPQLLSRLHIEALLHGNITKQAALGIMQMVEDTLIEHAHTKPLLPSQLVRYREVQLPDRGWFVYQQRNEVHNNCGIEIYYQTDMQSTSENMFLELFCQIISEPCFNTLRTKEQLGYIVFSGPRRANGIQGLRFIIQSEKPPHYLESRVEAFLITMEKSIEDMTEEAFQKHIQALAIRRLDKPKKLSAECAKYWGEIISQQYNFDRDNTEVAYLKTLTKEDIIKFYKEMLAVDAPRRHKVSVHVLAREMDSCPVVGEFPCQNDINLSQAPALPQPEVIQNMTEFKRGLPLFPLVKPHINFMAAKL

HEK293 [3] = test: HEK cell cytotoxicity by LDH release, dose response, cytotoxicity control for IDE activator project, fluorescence, HEK cells (AID 588440); type: functional, cell-based; conditions: Homo sapiens;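 also: cytotoxicity by LDH release measuring loss of membrane integrity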
[4] = growth suppression of PTEN-null colon cells, dose response, cell-based, HCT116 PTEN knockout (AID 1047); type: functional;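 also: HCT116 colon tumor cells with PTEN knocked out; cells exposed to compound for 60 hours before readout; potency for loss of cell viability measured by luminescence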
HEK293 [5] = test: optical interference in Abeta FP readout, dose response, artefact control for IDE activator project, biochemical, fluorescence polarization (AID 588442); type: functional, cell-based; conditions: Homo sapiens
[6] = inhibitors of firefly luciferase expression or activity, dose response, H4 neuroglioma cells, luminescence (AID 1990); type: functional, cell-based
INS1 = test: beta cell apoptosis inhibitors, cytokine rescue, dose response, luminescence, retest (AID 449756); type: functional, cell-based; conditions: Rattus norvegicus;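 also: cell death triggered by IL-1 beta plus TNF-alpha plus IFN-gamma mixture; protective hits raise ATP signal compared with cytokine alone wells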
[7] = target: Neurotensin receptor type 1 (Homo sapiens, UniProt P30989); type: functional;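 also: Image-based confirmatory dose-response assay measuring agonist activity at NTR1; NTR1-expressing U2OS osteosarcoma cells imaged for beta-arrestin GFP spot formation; agonist potency where compounds increase beta-arrestin recruitment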
Sequence of Neurotensin receptor type 1 (P30989 whole entry): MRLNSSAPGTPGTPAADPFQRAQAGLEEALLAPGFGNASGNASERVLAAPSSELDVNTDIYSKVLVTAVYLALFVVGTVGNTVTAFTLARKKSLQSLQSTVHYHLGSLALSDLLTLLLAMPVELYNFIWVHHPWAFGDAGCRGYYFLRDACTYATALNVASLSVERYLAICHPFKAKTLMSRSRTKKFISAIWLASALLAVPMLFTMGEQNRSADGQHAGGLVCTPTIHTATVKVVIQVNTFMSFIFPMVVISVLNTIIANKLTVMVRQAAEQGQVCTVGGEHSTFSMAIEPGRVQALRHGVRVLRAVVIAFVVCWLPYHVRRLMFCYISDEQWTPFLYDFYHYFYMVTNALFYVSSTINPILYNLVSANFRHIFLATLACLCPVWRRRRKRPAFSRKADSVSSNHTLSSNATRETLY

Streptokinase A = target: T2, Streptokinase A (Streptococcus pyogenes serotype M1, UniProt P10520); test: S. pyogenes streptokinase expression inhibitors, potency, dose response, plasminogen activation absorbance, OD405 (AID 1914); type: functional, Streptococcus pyogenes M1 GAS;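 also: secreted streptokinase activity via plasminogen activation per viability signal from cell pellet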
T2 sequence (P10520 whole entry): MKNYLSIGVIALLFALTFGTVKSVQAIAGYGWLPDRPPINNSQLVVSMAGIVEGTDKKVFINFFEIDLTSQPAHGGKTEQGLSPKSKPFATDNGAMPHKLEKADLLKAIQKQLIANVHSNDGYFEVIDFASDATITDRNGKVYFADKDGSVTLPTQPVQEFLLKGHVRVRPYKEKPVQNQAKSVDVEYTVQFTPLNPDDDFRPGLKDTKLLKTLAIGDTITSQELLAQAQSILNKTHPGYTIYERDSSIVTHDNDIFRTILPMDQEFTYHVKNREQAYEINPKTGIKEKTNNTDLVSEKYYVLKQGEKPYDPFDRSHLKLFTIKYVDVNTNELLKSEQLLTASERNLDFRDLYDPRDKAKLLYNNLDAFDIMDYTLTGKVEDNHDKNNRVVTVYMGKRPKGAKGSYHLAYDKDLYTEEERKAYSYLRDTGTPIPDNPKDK

[8] = cytotoxicity in HEK-293T cells, dose response, cytotoxicity control for TCR NF-kB inhibitor project, luminescence, T-cell screen hits (AID 489026); type: functional, cell-based;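 also: cells exposed to compound about 14 hours before the viability readout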
Streptococcus = test: Group A Streptococcus viability loss, dose response, counter-screen for streptokinase expression inhibitor project, luminescence, BacTiterGlo (AID 1915); type: functional, organism-based;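 also: potency for reduction of bacterial viability or growth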
Insulin-degrading enzyme [9] = target: T1, Insulin-degrading enzyme; test: activators of recombinant IDE enzyme, dose response, counter-screen for IDE activator project, biochemical, fluorescence polarization (AID 588681)
[10] = tested on: Streptococcus sp. 'group A'; test: growth inhibition of control SK(-) GAS strain, dose response, counter-screen for streptokinase expression inhibitor project, luminescence, kanamycin, BacTiterGlo, confirmation (AID 1900); type: functional, organism-based
[11] = growth suppression of beta-catenin-knockout colon cells, dose response, cell-based, HCT116, human colon tumor (AID 1045); type: functional;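 also: HCT116 colon tumor cells with beta catenin knocked out; cells exposed to compound for 60 hours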
[12] = inhibitors of SNCA 5'UTR-driven reporter translation, confirmation, H4 neuroglioma cells, luminescence (AID 1988); type: functional, cell-based
[13] = target: Mitochondrial peptide methionine sulfoxide reductase (Bos taurus, UniProt P54149); type: functional;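 also: absorbance read-out, biochemical high-throughput dose-response screen for MsrA inhibitors, confirmatory; recombinant bovine MsrA coupled to E. coli TrxB with NADPH and selenocystamine; potency is for inhibitors of MsrA activity on DMSO substrate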
Sequence of Mitochondrial peptide methionine sulfoxide reductase (P54149 whole entry): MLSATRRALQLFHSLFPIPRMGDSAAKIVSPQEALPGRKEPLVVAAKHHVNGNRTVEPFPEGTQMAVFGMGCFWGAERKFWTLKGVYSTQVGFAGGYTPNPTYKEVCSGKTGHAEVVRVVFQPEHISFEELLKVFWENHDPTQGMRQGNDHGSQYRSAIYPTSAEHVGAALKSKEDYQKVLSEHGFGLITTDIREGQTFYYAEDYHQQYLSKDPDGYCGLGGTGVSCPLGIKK

[14] = target: Low molecular weight phosphotyrosine protein phosphatase (Homo sapiens, UniProt P24666); type: functional; conditions: read-out: IC50_Mean;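 also: Dose-response confirmation assay measuring inhibition of LMPTP enzyme activity by fluorescence intensity read-out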
Sequence of Low molecular weight phosphotyrosine protein phosphatase (P24666 whole entry): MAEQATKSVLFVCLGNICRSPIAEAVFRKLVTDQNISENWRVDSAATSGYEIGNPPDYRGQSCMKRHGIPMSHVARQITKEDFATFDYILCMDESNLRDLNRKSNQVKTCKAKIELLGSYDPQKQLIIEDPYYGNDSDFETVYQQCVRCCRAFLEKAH

[15] = target: T3, Polyadenylate-binding protein 1 (Homo sapiens, UniProt P11940); test: PABP1 MLLE–PAM2 interaction inhibitors, dose response, miRNA deadenylation inhibitor project, biochemical, fluorescence polarization, Cy5-PAM2 peptide, secondary (AID 602260); type: functional; conditions: read-out: IC50_Mean
T3 sequence (P11940 whole entry): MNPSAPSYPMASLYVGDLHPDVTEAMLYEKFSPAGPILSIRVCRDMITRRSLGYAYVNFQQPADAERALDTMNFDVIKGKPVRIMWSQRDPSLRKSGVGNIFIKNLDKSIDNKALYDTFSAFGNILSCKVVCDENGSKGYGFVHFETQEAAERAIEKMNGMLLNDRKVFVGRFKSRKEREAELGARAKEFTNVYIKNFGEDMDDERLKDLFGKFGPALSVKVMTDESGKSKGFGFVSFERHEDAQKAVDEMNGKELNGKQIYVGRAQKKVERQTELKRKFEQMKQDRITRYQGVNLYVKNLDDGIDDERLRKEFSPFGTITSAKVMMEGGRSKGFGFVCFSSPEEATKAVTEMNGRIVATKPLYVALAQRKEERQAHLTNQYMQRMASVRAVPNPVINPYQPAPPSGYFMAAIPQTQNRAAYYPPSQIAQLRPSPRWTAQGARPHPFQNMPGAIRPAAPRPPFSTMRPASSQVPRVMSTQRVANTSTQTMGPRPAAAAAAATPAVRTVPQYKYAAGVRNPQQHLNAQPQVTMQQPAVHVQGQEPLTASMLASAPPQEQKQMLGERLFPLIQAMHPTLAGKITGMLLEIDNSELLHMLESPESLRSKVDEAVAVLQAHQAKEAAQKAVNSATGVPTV

[16] = target: T3, Polyadenylate-binding protein 1; test: PABP1 MLLE–PAM2 binding inhibitor potency, dose response, biochemical, fluorescence polarization, FITC-PAM2 peptide (AID 602259); type: functional; conditions: read-out: IC50_Mean
Fatty acid synthase [17] = target: T4, Fatty acid synthase (Homo sapiens, UniProt P49327); test: FAS thioesterase domain inhibitors, dose response, biochemical, kinetic fluorescence intensity (AID 624326); type: functional;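 also: rate of fluorescence rise from hydrolysis of a fluorogenic O-methyl fluorescein ester substrate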
T4 sequence (P49327 whole entry, the tested form may be a part): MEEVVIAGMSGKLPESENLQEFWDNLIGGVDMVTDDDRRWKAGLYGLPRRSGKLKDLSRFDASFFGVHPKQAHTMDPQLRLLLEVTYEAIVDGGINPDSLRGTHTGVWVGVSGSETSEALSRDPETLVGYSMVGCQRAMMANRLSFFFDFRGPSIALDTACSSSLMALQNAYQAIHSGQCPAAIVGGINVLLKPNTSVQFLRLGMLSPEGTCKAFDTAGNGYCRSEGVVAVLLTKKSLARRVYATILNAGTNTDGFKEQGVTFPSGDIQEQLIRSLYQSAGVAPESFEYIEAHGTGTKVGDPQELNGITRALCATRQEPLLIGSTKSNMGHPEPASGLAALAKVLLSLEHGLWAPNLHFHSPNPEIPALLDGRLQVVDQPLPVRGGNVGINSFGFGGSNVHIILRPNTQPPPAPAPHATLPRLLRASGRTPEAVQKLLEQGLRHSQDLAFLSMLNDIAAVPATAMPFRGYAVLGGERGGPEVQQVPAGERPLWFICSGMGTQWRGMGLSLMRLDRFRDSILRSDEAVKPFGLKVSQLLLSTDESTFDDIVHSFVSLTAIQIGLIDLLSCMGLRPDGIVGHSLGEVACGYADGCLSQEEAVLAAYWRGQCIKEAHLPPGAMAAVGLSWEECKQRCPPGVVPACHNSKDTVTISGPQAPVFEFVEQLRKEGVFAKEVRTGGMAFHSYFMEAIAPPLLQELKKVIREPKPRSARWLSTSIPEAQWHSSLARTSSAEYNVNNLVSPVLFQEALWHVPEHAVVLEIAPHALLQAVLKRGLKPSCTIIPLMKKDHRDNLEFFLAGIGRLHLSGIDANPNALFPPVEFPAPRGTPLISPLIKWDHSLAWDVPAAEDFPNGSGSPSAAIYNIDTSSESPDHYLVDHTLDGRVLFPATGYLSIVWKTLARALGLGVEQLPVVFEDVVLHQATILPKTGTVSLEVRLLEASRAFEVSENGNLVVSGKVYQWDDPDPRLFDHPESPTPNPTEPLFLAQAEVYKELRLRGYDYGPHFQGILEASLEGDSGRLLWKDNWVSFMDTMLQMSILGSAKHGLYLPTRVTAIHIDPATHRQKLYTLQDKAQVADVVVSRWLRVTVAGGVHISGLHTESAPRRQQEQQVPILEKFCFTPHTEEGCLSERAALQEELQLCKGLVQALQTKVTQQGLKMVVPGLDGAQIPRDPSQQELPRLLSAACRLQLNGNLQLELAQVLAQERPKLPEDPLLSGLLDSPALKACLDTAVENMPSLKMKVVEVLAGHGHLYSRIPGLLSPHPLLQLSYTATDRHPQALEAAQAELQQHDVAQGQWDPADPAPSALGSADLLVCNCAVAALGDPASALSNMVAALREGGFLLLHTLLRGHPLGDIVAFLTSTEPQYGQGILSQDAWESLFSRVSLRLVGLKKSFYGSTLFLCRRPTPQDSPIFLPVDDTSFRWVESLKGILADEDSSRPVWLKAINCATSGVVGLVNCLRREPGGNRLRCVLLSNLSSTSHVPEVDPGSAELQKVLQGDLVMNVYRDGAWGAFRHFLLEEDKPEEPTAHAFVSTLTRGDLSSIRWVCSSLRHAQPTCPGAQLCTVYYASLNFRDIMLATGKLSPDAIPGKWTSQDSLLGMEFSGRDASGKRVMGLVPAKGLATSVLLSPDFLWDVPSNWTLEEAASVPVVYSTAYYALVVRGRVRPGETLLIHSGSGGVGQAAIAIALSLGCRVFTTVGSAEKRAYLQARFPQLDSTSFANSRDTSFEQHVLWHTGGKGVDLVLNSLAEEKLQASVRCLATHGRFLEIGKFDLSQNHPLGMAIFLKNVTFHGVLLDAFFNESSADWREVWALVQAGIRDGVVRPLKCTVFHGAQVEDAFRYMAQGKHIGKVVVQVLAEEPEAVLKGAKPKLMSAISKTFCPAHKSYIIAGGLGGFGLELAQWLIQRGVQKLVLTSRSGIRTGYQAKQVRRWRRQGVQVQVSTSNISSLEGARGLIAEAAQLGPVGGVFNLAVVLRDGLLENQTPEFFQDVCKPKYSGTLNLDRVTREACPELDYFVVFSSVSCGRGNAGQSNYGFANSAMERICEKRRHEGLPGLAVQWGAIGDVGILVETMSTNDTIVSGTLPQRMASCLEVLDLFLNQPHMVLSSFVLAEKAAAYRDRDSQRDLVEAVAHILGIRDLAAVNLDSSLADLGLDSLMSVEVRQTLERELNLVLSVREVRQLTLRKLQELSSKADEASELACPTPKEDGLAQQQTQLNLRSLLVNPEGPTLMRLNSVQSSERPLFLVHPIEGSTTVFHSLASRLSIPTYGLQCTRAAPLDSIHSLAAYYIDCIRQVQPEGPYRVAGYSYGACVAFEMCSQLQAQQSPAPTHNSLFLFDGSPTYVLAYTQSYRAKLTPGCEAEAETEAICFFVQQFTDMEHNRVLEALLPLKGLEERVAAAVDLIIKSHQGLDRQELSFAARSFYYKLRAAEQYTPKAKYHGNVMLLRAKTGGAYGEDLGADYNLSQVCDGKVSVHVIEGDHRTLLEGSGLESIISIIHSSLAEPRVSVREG

[18] = target: Photoreceptor-specific nuclear receptor (Homo sapiens, UniProt Q9Y5X4); type: functional, cell-based;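 also: CHO-S cells with Gal4-NCOR and VP16-NR2E3 two-hybrid luciferase reporter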
Sequence of Photoreceptor-specific nuclear receptor (Q9Y5X4 whole entry, the tested form may be a part): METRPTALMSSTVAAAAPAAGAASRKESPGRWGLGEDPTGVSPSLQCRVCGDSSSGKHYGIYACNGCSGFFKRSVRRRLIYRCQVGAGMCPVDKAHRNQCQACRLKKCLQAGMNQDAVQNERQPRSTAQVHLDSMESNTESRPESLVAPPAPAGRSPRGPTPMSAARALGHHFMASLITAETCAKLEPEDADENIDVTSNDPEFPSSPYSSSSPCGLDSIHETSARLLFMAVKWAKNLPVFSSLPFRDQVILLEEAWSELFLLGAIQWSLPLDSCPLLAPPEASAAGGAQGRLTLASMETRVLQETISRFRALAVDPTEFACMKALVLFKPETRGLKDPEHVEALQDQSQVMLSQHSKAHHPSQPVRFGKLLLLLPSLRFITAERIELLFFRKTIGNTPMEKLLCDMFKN

Fatty acid synthase [19] = target: T4, Fatty acid synthase; test: FAS thioesterase domain inhibitors, dose response, biochemical, endpoint fluorescence intensity, uHTS hits (AID 624327); type: functional;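 also: fluorescence from hydrolysis of an O-methyl fluorescein acyl ester substrate by the enzyme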
[20] = inhibitors of intracellular T. cruzi replication, confirmation, NIH3T3 host cells, beta-gal luminescence (AID 2044); type: functional, cell-based;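 also: intracellular parasites grown in NIH/3T3 mouse fibroblasts as host cells; luminescent beta-galactosidase reporter signal from transgenic T. cruzi replicating inside host cells; inhibitors lower the luminescence signal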
[21] = cytotoxicity toward NIH3T3 fibroblasts, dose response, counter-screen, cell-based, ATP luminescence, mouse fibroblasts (AID 2010); type: functional;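 also: cells exposed to compound for about 90 hours before reading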
Lethal factor = Lethal factor (Bacillus anthracis, UniProt P15917); test: High-throughput multiplex microsphere dose response for inhibitors of toxin protease, specifically Lethal Factor protease, compounds from Cherry Pick 02.; type: functional; conditions: read-out: EC50_MICROM
[22] = target: T5, Ubiquitin-conjugating enzyme E2 N (Homo sapiens, UniProt P61088); type: functional
T5 sequence (P61088 whole entry): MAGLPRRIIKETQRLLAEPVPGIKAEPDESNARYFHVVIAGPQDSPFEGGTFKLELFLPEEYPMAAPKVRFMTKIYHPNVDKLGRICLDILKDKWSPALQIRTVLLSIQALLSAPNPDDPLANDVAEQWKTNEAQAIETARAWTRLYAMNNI

[23] = target: T6, Apoptotic protease-activating factor 1 (Homo sapiens, UniProt O14727); type: functional
T6 sequence (O14727 whole entry): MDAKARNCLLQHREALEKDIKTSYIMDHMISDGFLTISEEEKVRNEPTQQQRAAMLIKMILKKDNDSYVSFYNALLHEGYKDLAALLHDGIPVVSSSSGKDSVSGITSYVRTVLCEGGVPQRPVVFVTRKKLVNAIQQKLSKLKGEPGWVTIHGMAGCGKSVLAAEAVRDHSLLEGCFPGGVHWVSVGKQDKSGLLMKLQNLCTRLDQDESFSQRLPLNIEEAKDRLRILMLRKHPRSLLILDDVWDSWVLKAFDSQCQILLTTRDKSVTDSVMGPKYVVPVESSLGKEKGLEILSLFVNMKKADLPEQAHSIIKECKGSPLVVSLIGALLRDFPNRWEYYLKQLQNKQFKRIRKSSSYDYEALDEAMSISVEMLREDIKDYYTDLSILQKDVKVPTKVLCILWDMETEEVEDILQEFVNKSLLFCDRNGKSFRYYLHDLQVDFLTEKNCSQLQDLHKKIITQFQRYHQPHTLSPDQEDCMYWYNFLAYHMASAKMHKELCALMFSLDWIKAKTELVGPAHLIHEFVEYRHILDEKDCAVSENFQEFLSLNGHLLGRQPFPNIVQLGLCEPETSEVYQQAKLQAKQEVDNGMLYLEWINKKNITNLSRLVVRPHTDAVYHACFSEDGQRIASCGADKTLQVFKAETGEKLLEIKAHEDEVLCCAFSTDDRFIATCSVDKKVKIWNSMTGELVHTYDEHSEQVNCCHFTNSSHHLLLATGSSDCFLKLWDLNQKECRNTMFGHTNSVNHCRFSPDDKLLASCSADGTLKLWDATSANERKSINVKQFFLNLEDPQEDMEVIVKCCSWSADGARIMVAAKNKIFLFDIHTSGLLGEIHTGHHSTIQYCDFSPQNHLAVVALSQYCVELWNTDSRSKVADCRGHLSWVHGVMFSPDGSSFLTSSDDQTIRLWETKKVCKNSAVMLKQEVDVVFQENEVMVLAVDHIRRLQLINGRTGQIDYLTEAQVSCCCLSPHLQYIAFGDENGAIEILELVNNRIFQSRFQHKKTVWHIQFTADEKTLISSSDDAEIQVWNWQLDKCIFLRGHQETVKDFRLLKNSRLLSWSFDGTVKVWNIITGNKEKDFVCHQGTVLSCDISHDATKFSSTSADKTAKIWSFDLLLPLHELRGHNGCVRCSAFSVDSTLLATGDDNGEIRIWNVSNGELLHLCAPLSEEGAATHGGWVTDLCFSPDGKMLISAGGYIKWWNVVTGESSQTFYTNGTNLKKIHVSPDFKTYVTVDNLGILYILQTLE

[24] = target: T5, Ubiquitin-conjugating enzyme E2 N; type: functional; remark: listed apart in the source
Bcl-2-related protein A1 = target: T7, Bcl-2-related protein A1 (Mus musculus, UniProt Q07440); type: functional;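 also: confirmatory dose–response counterscreen on Bfl-1, used to check hits from a UBC13 polyubiquitin inhibitor campaign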
T7 sequence (Q07440 whole entry): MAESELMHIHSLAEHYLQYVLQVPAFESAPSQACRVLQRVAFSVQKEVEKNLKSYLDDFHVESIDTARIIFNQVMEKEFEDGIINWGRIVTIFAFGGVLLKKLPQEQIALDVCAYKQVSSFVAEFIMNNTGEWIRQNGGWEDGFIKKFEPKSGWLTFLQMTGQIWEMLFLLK

H9c2 = test: cells; type: functional, cell-based; conditions: Rattus norvegicus, H9c2, Myocardium;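 also: confirmatory concentration-response retest of ultra-high-throughput screening hits for modulation of myocardial damage; cell death induced by hydrogen peroxide oxidative stress; compound pretreatment for 60 min then peroxide exposure for 2 h; potency is for protecting the cells against peroxide damage rather than for killing them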
Melanocortin receptor 4 = Melanocortin receptor 4 (Homo sapiens, UniProt P32245); type: functional, cell-based;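 also: Cell-based assay with luminescence read-out, confirmatory dose-response testing for agonist activity of biased ligands at MC4R; human U2OS cells with tagged receptor and beta-arrestin; potency of agonists that increase receptor coupling to beta-arrestin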
Sequence of Melanocortin receptor 4 (P32245 whole entry): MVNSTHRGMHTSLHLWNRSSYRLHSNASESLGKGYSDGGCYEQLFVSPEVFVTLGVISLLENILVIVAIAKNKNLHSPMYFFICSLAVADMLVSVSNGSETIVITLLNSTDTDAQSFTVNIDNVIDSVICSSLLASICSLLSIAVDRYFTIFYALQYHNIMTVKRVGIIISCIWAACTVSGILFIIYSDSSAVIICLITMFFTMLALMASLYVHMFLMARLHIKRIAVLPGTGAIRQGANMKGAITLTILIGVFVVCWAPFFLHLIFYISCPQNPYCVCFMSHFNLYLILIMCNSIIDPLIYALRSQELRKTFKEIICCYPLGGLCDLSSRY

COc1ccc(Cn2c(SCc3ccc(C)cc3)nc3cc(OC)c(OC)cc3c2=N)cc1Cl
EC50 [1]: > 120 µM (not active)
EC50 (Insulin-degrading enzyme [2]): 15.5 µM (inactive)
IC50 (HEK293 [3]): 15.9 µM (inactive)
EC50 [4]: 3.54 µM (active)
EC50 (HEK293 [5]): > 54.7 µM (inactive)
EC50 [6]: > 120 µM (not active)
AC50 (INS1): 3.85 µM (active)
EC50 [7]: 5.35 µM (active)
EC50 (Streptokinase A): 5.92 µM (active)
IC50 [8]: > 80 µM (inactive)
EC50 (Streptococcus): 8.22 µM (active)
EC50 (Insulin-degrading enzyme [9]): > 54.7 µM (inactive)
EC50 [10]: 2.52 µM (active)
EC50 [11]: 3.32 µM (active)
EC50 [12]: > 120 µM (not active)

COc1cc(OC)c(OC)cc1/C=N/NC(=O)c1ccc(=O)n(C)c1
IC50 [13]: 102 µM (inactive)

CCn1cc(C(=O)O)c(=O)c2cc(F)c(N3CCN(C(=S)NC(=O)c4cccc(F)c4)CC3)cc21
IC50 [14]: 8.61 µM (active)

CCOC(=O)C(C)Sc1nnc(Cc2cc(O)nc(O)n2)n1-c1ccc(Cl)cc1 (stereo unspecified)
IC50 [15]: > 66 µM (inactive)
IC50 [16]: > 66 µM (inactive)

CCc1cccc2sc(N3CCN(C(=O)c4ccc([N+](=O)[O-])o4)CC3)nc12
IC50 (Fatty acid synthase [17]): 12.9 µM (active)
IC50 [18]: 4.71 µM (active)
IC50 (Fatty acid synthase [19]): 13.3 µM (active)
EC50 (Streptokinase A): 2.38 µM (active)
EC50 (Streptococcus): 12.1 µM (active)
EC50 [20]: 0.307 µM (active)
EC50 [21]: 5.4 µM (active)
EC50 [10]: 5.99 µM (active)

Cn1ccc2c(-c3ccc(F)nc3)cc3c(c21)C1CCC3C1 (stereo unspecified)
EC50 (Lethal factor): 10.6 µM (active)

Nc1nnc2cc(Br)ccc2n1
IC50 [15]: > 66 µM (inactive)
IC50 [16]: 35.7 µM (inactive)

CCCOc1ccc(C(=O)NC(=S)N2CCN(c3ncc4c(=O)c(C(=O)O)cn(CC)c4n3)CC2)cc1
IC50 [14]: 9.82 µM (active)

C#CCOCCOCCOCCNc1nc(N2CCN(C(=O)CCCCCCCCCCNC(=O)[C@H]([C@@H](C)CC)n3cc(CCCCCN)nn3)CC2)nc(N2CCN(C(=O)CCCCCCCCCCNC(=O)[C@H](CO)n3cc(CCCCCN)nn3)CC2)n1
EC50 (Insulin-degrading enzyme [2]): > 6.08 µM (active)
IC50 [22]: 4.22 µM (active)
IC50 (HEK293 [3]): 9.37 µM (active)
IC50 [23]: 25 µM (active)
EC50 (HEK293 [5]): > 56 µM (inactive)
IC50 [24]: 2.64 µM (active)
IC50 (Bcl-2-related protein A1): > 20 µM (inactive)
EC50 (Insulin-degrading enzyme [9]): 9.67 µM (active)

CC(=O)Nc1ccc(-c2csc(NC(=O)Nc3ccccc3)n2)cc1
IC50 (H9c2): 38.3 µM (inactive)
EC50 (Melanocortin receptor 4): > 89.2 µM (inactive)
